Patent publication US12195464B2, “Lumateperone bis-tosylate salts and crystals and methods for manufacture thereof” (INTRA-CELLULAR THERAPIES, INC., priority 2018, dated 2025)

Key:
[1] = free base form; cited from earlier work
5-HT2C = biological target: T1, 5-HT2C (Homo sapiens, UniProt P28335); conditions: receptor associated with cognitive and metabolic side effects; cited from earlier work
T1 sequence (P28335 33-458): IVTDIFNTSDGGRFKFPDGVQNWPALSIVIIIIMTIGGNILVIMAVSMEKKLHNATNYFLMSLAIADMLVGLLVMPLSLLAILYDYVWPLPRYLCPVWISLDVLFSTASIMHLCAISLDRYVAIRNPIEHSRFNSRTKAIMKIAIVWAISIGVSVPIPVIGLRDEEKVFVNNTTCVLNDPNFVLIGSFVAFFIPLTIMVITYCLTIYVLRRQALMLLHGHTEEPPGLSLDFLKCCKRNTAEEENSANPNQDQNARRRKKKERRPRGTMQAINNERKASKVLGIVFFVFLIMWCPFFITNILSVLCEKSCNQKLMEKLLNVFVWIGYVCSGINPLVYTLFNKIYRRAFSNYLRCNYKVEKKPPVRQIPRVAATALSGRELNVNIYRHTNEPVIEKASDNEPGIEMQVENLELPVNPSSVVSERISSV

[2] = solubility in organic solvents; assay type: physicochemical; conditions: free base, variety of organic solvents
muscarinic = conditions: receptor associated with cognitive and metabolic side effects; cited from earlier work
H1 histaminergic = H1 histaminergic (Homo sapiens, UniProt P35367); conditions: receptor associated with cognitive and metabolic side effects; cited from earlier work
Chain of H1 histaminergic (P35367 whole entry): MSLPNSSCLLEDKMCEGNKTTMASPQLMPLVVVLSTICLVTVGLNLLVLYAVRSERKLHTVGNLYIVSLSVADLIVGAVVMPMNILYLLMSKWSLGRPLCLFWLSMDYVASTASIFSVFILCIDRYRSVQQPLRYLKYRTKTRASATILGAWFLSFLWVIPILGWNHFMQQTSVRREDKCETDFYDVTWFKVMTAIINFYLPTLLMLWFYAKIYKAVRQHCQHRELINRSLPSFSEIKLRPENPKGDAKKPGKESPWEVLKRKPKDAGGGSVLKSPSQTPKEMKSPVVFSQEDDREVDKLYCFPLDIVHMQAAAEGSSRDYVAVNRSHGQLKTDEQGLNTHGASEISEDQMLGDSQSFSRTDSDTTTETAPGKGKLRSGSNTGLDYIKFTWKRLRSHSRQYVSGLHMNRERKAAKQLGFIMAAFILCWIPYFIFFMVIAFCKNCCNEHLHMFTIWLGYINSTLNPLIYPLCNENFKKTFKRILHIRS

NMDA and AMPA signaling = conditions: especially in the medial prefrontal cortex (mPFC); indirectly via D1 interaction; cited from earlier work
[3] = salt of U.S. Pat. No. 7,183,282; cited from earlier work
[4] = salt of U.S. Pat. No. 7,183,282; cited from earlier work; remark: listed apart in the source

Compound | aqueous solubility [1] | binding to 5-HT2C receptor (5-HT2C) | solubility in organic solvents [2] | binding to muscarinic receptors (muscarinic) | binding to H1 histaminergic receptor (H1 histaminergic) | NMDA and AMPA signaling in the brain (NMDA and AMPA signaling) | hygroscopicity (in words) [3] | stability (in words) [4]
CN1CCN2c3c(cccc31)[C@@H]1CN(CCCC(=O)c3ccc(F)cc3)CC[C@@H]12 [ITI-007, 4-((6bR,10aS)-3-methyl-2,3,6b,9,10,10a-hexahydro-1H-pyrido[3′,4′:4,5]pyrrolo[1,2,3-de]quinoxalin-8(7H)-yl)-1-(4-fluorophenyl)-1-butanone] | poor aqueous solubility | negligible binding | good solubility | negligible binding | negligible binding | enhanced | – | –
CN1CCN2c3c(cccc31)C1CN(CCCC(=O)c3ccc(F)cc3)CCC12.Cl (centres unmarked) [hydrochloride salt form of ITI-007] | – | – | – | – | – | – | hygroscopic | poor stability
